Values of other authors, collected in patent US20140023696A1, “TREATMENT FOR IDIOPATHIC PULMONARY FIBROSIS” (priority 2012, published 2014).

Tested on: patients with IPF
Conditions: added to prednisone and azathioprine; 12 months of follow up

Compound: CC(=O)N[C@@H](CS)C(=O)O [N-acetylcysteine]
- effect on FVC and DLCO: slight benefit
